21 compounds from patent publication US11845724B2, “USP30 inhibitors and uses thereof” (Vincere Biosciences, Inc., priority 2019, dated 2023) can be followed below.

Like-named read-outs stand apart in the source and are kept apart here. Bounds are passed on as bounds.

In assay [1] the target is recombinant USP30 (amino acids 57-517 of the human sequence) (Homo sapiens (Human), UniProt Q70CQ3). Description: In vitro USP30 biochemical assay (Ubiquitin-Rhodamine).
The target of assay [2] is USP30 (Homo sapiens (Human), UniProt Q70CQ3). Description: Dundee MALDI-TOF mass spectrometry assay (IC50). Particulars: USP30 25 ng/μl, K48-linked diubiquitin 5.6 μM, avg, read-out: Dundee IC50 μM (avg in vitro MS assay). In kind it is biochemical. On the procedure: Compounds were tested in a MALDI-TOF assay based on the paper by Ritorto et al. (Ritorto et al. Screening of DUB activity and specificity by MALDI-TOF mass spectrometry. Nat. […] USP30 (25 ng/μl) tested against K48-linked diubiquitin (5.6 μM). USP30 was diluted in a buffer containing 40 mM Tris, 0.01% BSA, 1 mM DTT and K48 in 40 mM Tris, 0.01% BSA. The compounds were pre-incubated with the USP30 for 5 mins at room temp before the K48 dimer addition. The assay mixture was then incubated for 45 mins at room temp. The assay was stopped by the addition of TFA to a final concentration of 2% (v/v). […] Then 250 nl of these solutions were spotted onto an MTP AnchorChip 1,536 TF and this is analysed on the Bruker rapifleX MALDI-TOF.
Chain of USP30 (Q70CQ3 whole entry): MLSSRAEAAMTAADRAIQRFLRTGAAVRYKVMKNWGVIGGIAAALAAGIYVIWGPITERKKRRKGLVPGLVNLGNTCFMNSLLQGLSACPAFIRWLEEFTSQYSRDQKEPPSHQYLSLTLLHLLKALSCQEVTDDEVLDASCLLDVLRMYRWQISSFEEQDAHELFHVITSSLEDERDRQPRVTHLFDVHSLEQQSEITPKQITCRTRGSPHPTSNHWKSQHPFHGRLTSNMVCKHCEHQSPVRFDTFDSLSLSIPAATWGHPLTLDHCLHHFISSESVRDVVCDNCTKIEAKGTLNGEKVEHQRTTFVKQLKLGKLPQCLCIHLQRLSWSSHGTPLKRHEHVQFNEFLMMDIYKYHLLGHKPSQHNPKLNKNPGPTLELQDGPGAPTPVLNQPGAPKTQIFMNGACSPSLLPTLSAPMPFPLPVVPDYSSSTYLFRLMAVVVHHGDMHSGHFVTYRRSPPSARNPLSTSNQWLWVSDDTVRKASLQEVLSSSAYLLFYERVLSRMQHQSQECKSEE

[3] abbreviates: USP30 IC50 μM (avg), Ubiquitin-Rhodamine substrate 25 nM, 1.5 nM recombinant USP30.
Setting [4] is: read-out: USP30 IC50 μM (avg), Ubiquitin-Rhodamine substrate 25 nM, 1.5 nM recombinant USP30.

Chain of recombinant USP30 (amino acids 57-517 of the human sequence) (Q70CQ3 57-517): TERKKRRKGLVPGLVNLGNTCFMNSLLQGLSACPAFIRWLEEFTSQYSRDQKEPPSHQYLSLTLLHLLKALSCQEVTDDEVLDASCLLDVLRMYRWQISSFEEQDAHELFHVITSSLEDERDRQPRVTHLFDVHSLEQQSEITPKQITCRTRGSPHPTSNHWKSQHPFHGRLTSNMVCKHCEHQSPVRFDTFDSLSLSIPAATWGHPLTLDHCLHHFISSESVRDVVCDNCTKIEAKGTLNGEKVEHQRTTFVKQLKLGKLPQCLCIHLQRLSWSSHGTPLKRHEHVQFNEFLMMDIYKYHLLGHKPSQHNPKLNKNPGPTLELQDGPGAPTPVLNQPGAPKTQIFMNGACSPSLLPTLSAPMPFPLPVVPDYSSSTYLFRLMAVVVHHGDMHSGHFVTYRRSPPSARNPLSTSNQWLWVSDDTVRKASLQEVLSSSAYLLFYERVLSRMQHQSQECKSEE

With `O=C(N[C@@H](Cc1ccccc1)C(=O)Nc1ccc(S(=O)(=O)NCCN2CCOCC2)cn1)c1ccc(F)cc1` [Compound I-122, (S)-4-fluoro-N-(1-(5-(N-(2-morpholinoethyl)sulfamoyl)pyridin-2-ylamino)-1-oxo-3-phenylpropan-2-yl)benzamide], the IC50 in assay [1] (setting [3]) and in assay [2] was 0.05 to 1 µM in each case. `CC1(NS(=O)(=O)c2ccc(NC(=O)[C@H](Cc3ccccc3)NC(=O)c3ccc(F)cc3)cc2)COC1` [Compound I-136, (S)-4-fluoro-N-(1-(4-(N-(3-methyloxetan-3-yl)sulfamoyl)phenylamino)-1-oxo-3-phenylpropan-2-yl)benzamide]: the IC50 in assay [1] (setting [4]) and in assay [2] was below 0.05 µM each time. In the case of `O=C(N[C@@H](Cc1ccccc1)C(=O)Nc1ccc(S(=O)(=O)NCCCN2CCOCC2)cn1)c1ccc(F)cc1` [Compound I-123, (S)-4-fluoro-N-(1-(5-(N-(3-morpholinopropyl)sulfamoyl)pyridin-2-ylamino)-1-oxo-3-phenylpropan-2-yl)benzamide], the IC50 in assay [1] (setting [3]) and in assay [2] was 0.05 to 1 µM throughout.

Turning to `CC(C)(CO)NS(=O)(=O)c1ccc(NC(=O)[C@H](Cc2ccccc2)NC(=O)c2ccc(F)cc2)cn1` [Compound I-116, (S)-4-fluoro-N-(1-(6-(N-(1-hydroxy-2-methylpropan-2-yl)sulfamoyl)pyridin-3-ylamino)-1-oxo-3-phenylpropan-2-yl)benzamide], the IC50 in assay [1] (setting [3]) and in assay [2] was 0.05 to 1 µM throughout. Take `CN(C(=O)c1ccc(F)cc1)[C@@H](Cc1cccnc1)C(=O)Nc1ccc(S(=O)(=O)NC23CC(C2)C3)cc1` [Compound I-92, (S)-N-(1-(4-(N-bicyclo[1.1.1]pentan-1-ylsulfamoyl)phenylamino)-1-oxo-3-(pyridin-3-yl)propan-2-yl)-4-fluoro-N-methylbenzamide]: the IC50 in assay [1] (setting [3]) and in assay [2] was 1 to 10 µM throughout. In the case of `CCNS(=O)(=O)c1ccc(NC(=O)[C@H](Cc2ccccc2)NC(=O)c2ccc(F)cc2)c(F)c1` [Compound I-157, (S)-N-(1-(4-(N-ethylsulfamoyl)-2-fluorophenylamino)-1-oxo-3-phenylpropan-2-yl)-4-fluorobenzamide], the IC50 in assay [1] (setting [3]) and in assay [2] was 0.05 to 1 µM throughout. For `CC(C)(C)NS(=O)(=O)c1ccc(NC(=O)[C@H](Cc2ccccc2)NC(=O)c2ccc(F)cc2)c(F)c1` [Compound I-158, (S)-N-(1-(4-(N-tert-butylsulfamoyl)-2-fluorophenylamino)-1-oxo-3-phenylpropan-2-yl)-4-fluorobenzamide], the IC50 in assay [1] (setting [4]) and in assay [2] was below 0.05 µM each time. As to `O=C(N[C@@H](Cc1ccccc1)C(=O)Nc1ccc(S(=O)(=O)NC2CCCC2)cc1)c1ccccn1` [Compound I-77, (S)-N-(1-(4-(N-cyclopentylsulfamoyl)phenylamino)-1-oxo-3-phenylpropan-2-yl)picolinamide], the IC50 in assay [1] (setting [3]) and in assay [2] was 0.05 to 1 µM throughout. Turning to `C[C@H](NS(=O)(=O)c1ccc(NC(=O)[C@H](Cc2ccccc2)NC(=O)c2ccc(F)cc2)cc1)C(F)(F)F` [Compound I-13, 4-fluoro-N-((S)-1-oxo-3-phenyl-1-(4-(N-((S)-1,1,1-trifluoropropan-2-yl)sulfamoyl)phenylamino)propan-2-yl)benzamide], the IC50 was 0.05 to 1 µM in assay [1] (setting [3]) and below 0.05 µM in assay [2]. Take `CCNS(=O)(=O)c1ccc(NC(=O)[C@H](Cc2ccccc2)NC(=O)c2ccc(F)cc2)cc1F` [Compound I-155, (S)-N-(1-(4-(N-ethylsulfamoyl)-3-fluorophenylamino)-1-oxo-3-phenylpropan-2-yl)-4-fluorobenzamide]: the figures for the IC50 in assay [1] (setting [3]) and in assay [2] were 0.05 to 1 µM and below 0.05 µM, respectively. The like results for `CCNS(=O)(=O)c1cccc2c(NC(=O)[C@H](Cc3ccccc3)NC(=O)C3CCCCC3)cccc12` [Compound I-124, (S)-N-(1-(5-(N-ethylsulfamoyl)naphthalen-1-ylamino)-1-oxo-3-phenylpropan-2-yl)cyclohexanecarboxamide] were, in that order, 0.05 to 1 µM and below 0.05 µM. As for `CCNS(=O)(=O)N1CCCc2c(NC(=O)[C@H](Cc3ccccc3)NC(=O)C3CCCCC3)cccc21` [Compound I-126, (S)-N-(1-(1-(N-ethylsulfamoyl)-1,2,3,4-tetrahydroquinolin-5-ylamino)-1-oxo-3-phenylpropan-2-yl)cyclohexanecarboxamide], the 50% inhibitory concentration (IC50) is above 10 µM in assay [1] (setting [4]) and 1 to 10 µM in assay [2]. Turning to `CC(C)(C)OCCNS(=O)(=O)c1ccc(NC(=O)[C@H](Cc2ccccc2)NC(=O)c2ccc(F)cc2)cn1` [Compound I-114, (S)-N-(1-(6-(N-(2-tert-butoxyethyl)sulfamoyl)pyridin-3-ylamino)-1-oxo-3-phenylpropan-2-yl)-4-fluorobenzamide], the IC50 in assay [1] (setting [3]) and in assay [2] was 0.05 to 1 µM in each case. Regarding `CCNS(=O)(=O)c1ccc(NC(=O)[C@H](Cc2ccccc2)NC(=O)c2ccc(F)cc2)cc1OC` [Compound I-146, (S)-N-(1-(4-(N-ethylsulfamoyl)-3-methoxyphenylamino)-1-oxo-3-phenylpropan-2-yl)-4-fluorobenzamide], the IC50 in assay [1] (setting [3]) and in assay [2] was 0.05 to 1 µM each time. Consider `CC(C)(C)NS(=O)(=O)c1ccc(NC(=O)[C@H](Cc2ccccc2)N2CCc3ccccc3C2=O)cc1` [Compound I-84, (S)-N-(4-(N-tert-butylsulfamoyl)phenyl)-2-(1-oxo-3,4-dihydroisoquinolin-2(1H)-yl)-3-phenylpropanamide], for which the IC50 in assay [1] (setting [3]) and in assay [2] was 0.05 to 1 µM throughout. For `CC1(NS(=O)(=O)c2ccc(NC(=O)[C@H](Cc3ccccc3)NC(=O)c3ccc(F)cc3)cn2)COC1` [Compound I-115, (S)-4-fluoro-N-(1-(6-(N-(3-methyloxetan-3-yl)sulfamoyl)pyridin-3-ylamino)-1-oxo-3-phenylpropan-2-yl)benzamide], the figures for the IC50 in assay [1] (setting [3]) and in assay [2] were 0.05 to 1 µM and below 0.05 µM, respectively. Regarding `CC(C)(C)NS(=O)(=O)c1ccc(NC(=O)[C@H](Cc2ccccc2)NC(=O)c2ccc(F)cc2)nc1` [Compound I-61, (S)-N-(1-(5-(N-tert-butylsulfamoyl)pyridin-2-ylamino)-1-oxo-3-phenylpropan-2-yl)-4-fluorobenzamide], the IC50 in assay [2] was below 0.05 µM.

Turning to `CC(C)(C)NS(=O)(=O)c1ccc(NC(=O)[C@H](Cc2ccccc2)NC(=O)c2ccc(F)cc2)cn1` [Compound I-62, (S)-N-(1-(6-(N-tert-butylsulfamoyl)pyridin-3-ylamino)-1-oxo-3-phenylpropan-2-yl)-4-fluorobenzamide], the IC50 in assay [2] is below 0.05 µM. The same measure, in the same setting: as for `O=C(N[C@@H](Cc1ccccc1)C(=O)Nc1ccc(S(=O)(=O)Nc2ccccc2)cc1)c1ccc(F)cc1` [Compound I-32, (S)-4-fluoro-N-(1-oxo-3-phenyl-1-(4-(N-phenylsulfamoyl)phenylamino)propan-2-yl)benzamide], the figure is 0.05 to 1 µM. As to `O=C(N[C@@H](Cc1ccccc1)C(=O)Nc1ccc(S(=O)(=O)NC2CC2)cc1)c1ccc(F)cc1` [Compound I-6, (S)-N-(1-(4-(N-cyclopropylsulfamoyl)phenylamino)-1-oxo-3-phenylpropan-2-yl)-4-fluorobenzamide], the IC50 in assay [2] is below 0.05 µM. Regarding `CC(C)(C)CS(=O)(=O)c1ccc(NC(=O)[C@H](Cc2ccccc2)NC(=O)c2ccc(F)cc2)cc1` [Compound I-2, (S)-4-fluoro-N-(1-(4-(2,2-Dimethyl-propylsulfonyl)phenylamino)-1-oxo-3-phenylpropan-2-yl)benzamide], the IC50 in assay [2] is 0.05 to 1 µM.

As usually defined, the IC50 is the concentration needed to halve the response being measured.
